#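 Following 48 hours of exposure in 96-well plates, responses at five concentrations were used to interpolate endpoints linearly. Abbreviation: GI50, concentration required for 50% inhibition of growth. TGI denotes the concentration required for complete inhibition of growth.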
# Legend:
# Test in all cases: growth of human tumour cells (NCI), 48 h
# NCI/ADR-RES ovarian = test system: NCI/ADR-RES ovarian
# U251 CNS = test system: U251 CNS
# TK-10 renal = test system: TK-10 renal
# NCI-H460 lung = test system: NCI-H460 lung
# SN12C renal = test system: SN12C renal
# SK-OV-3 ovarian = test system: SK-OV-3 ovarian
# RPMI-8226 leukemia = test system: RPMI-8226 leukemia
# UACC-62 melanoma = test system: UACC-62 melanoma
# HL-60(TB) leukemia = test system: HL-60(TB) leukemia
# ACHN renal = test system: ACHN renal
# MALME-3M melanoma = test system: MALME-3M melanoma
# LOX IMVI melanoma = test system: LOX IMVI melanoma
# IGROV1 ovarian = test system: IGROV1 ovarian
# PC-3 prostate = test system: PC-3 prostate
# KM12 colon = test system: KM12 colon
# UACC-257 melanoma = test system: UACC-257 melanoma
# A549 NSCLC = test system: A549 NSCLC
# SK-MEL-28 melanoma = test system: SK-MEL-28 melanoma
# SK-MEL-5 melanoma = test system: SK-MEL-5 melanoma
# UO-31 renal = test system: UO-31 renal
# MDA-MB-231 breast = test system: MDA-MB-231 breast
# A498 renal = test system: A498 renal
# CAKI-1 renal = test system: CAKI-1 renal
# MOLT-4 leukemia = test system: MOLT-4 leukemia
# DU-145 prostate = test system: DU-145 prostate
# HOP-92 NSCLC = test system: HOP-92 NSCLC
# NCI-H226 lung = test system: NCI-H226 lung
# NCI-H23 lung = test system: NCI-H23 lung
# M14 melanoma = test system: M14 melanoma
# 786-0 renal = test system: 786-0 renal
# COLO 205 colon = test system: COLO 205 colon
# HCC-2998 colon = test system: HCC-2998 colon
# RXF 393 renal = test system: RXF 393 renal
# SF-268 CNS = test system: SF-268 CNS
# OVCAR-4 ovarian = test system: OVCAR-4 ovarian
# HS 578T breast = test system: HS 578T breast
# SF-295 CNS = test system: SF-295 CNS
# MCF7 breast = test system: MCF7 breast
# HOP-62 NSCLC = test system: HOP-62 NSCLC
# T-47D breast = test system: T-47D breast
# OVCAR-8 ovarian = test system: OVCAR-8 ovarian
# OVCAR-3 ovarian = test system: OVCAR-3 ovarian
# HCT-116 colon = test system: HCT-116 colon
# SNB-75 CNS = test system: SNB-75 CNS
# HT29 colon = test system: HT29 colon
# SF-539 CNS = test system: SF-539 CNS
# SNB-19 CNS = test system: SNB-19 CNS
# NCI-H522 lung = test system: NCI-H522 lung
# SK-MEL-2 melanoma = test system: SK-MEL-2 melanoma
# OVCAR-5 ovarian = test system: OVCAR-5 ovarian
# K-562 leukemia = test system: K-562 leukemia
# SW-620 colon = test system: SW-620 colon
# SR leukemia = test system: SR leukemia
# CCRF-CEM leukemia = test system: CCRF-CEM leukemia
# HCT-15 colon = test system: HCT-15 colon
# MDA-MB-435 = test system: MDA-MB-435
# BT-549 breast = test system: BT-549 breast
# EKVX NSCLC = test system: EKVX NSCLC
compound,measurement,setting,value
COc1ccccc1CNCCCN1C(=O)c2ccc3c4c(ccc(c24)C1=O)C(=O)N(CCCNCCCCNCCCCN)C3=O,GI50,NCI/ADR-RES ovarian,12.8 µM
same,TGI,NCI/ADR-RES ovarian,> 100 µM
same,GI50,U251 CNS,1.07 µM
same,TGI,U251 CNS,3.25 µM
same,GI50,TK-10 renal,3.71 µM
same,TGI,TK-10 renal,51.7 µM
same,GI50,NCI-H460 lung,2.27 µM
same,TGI,NCI-H460 lung,5.8 µM
same,GI50,SN12C renal,1.99 µM
same,TGI,SN12C renal,5.9 µM
same,GI50,SK-OV-3 ovarian,2.82 µM
same,TGI,SK-OV-3 ovarian,14.1 µM
same,GI50,RPMI-8226 leukemia,1.83 µM
same,TGI,RPMI-8226 leukemia,9.62 µM
same,GI50,UACC-62 melanoma,1.53 µM
same,TGI,UACC-62 melanoma,3.66 µM
same,GI50,HL-60(TB) leukemia,1.28 µM
same,TGI,HL-60(TB) leukemia,5.71 µM
same,GI50,ACHN renal,2.82 µM
same,TGI,ACHN renal,> 33.9 µM
same,GI50,MALME-3M melanoma,0.971 µM
same,TGI,MALME-3M melanoma,2.48 µM
same,GI50,LOX IMVI melanoma,0.941 µM
same,TGI,LOX IMVI melanoma,4.76 µM
same,GI50,IGROV1 ovarian,2.8 µM
same,TGI,IGROV1 ovarian,9.17 µM
same,GI50,PC-3 prostate,2.5 µM
same,TGI,PC-3 prostate,10.3 µM
same,GI50,KM12 colon,2.42 µM
same,TGI,KM12 colon,6.91 µM
same,GI50,UACC-257 melanoma,0.857 µM
same,TGI,UACC-257 melanoma,2.22 µM
same,GI50,A549 NSCLC,2.3 µM
same,TGI,A549 NSCLC,7 µM
same,GI50,SK-MEL-28 melanoma,2.1 µM
same,TGI,SK-MEL-28 melanoma,5.9 µM
same,GI50,SK-MEL-5 melanoma,0.822 µM
same,TGI,SK-MEL-5 melanoma,2.23 µM
same,GI50,UO-31 renal,3.44 µM
same,TGI,UO-31 renal,> 67.3 µM
same,GI50,MDA-MB-231 breast,0.944 µM
same,TGI,MDA-MB-231 breast,8.17 µM
same,GI50,A498 renal,0.472 µM
same,TGI,A498 renal,4.51 µM
same,GI50,CAKI-1 renal,3.98 µM
same,TGI,CAKI-1 renal,46 µM
same,GI50,MOLT-4 leukemia,3.23 µM
same,TGI,MOLT-4 leukemia,19.5 µM
same,GI50,DU-145 prostate,1.62 µM
same,TGI,DU-145 prostate,3.95 µM
same,GI50,HOP-92 NSCLC,1.87 µM
same,TGI,HOP-92 NSCLC,8.66 µM
same,GI50,NCI-H226 lung,1.83 µM
same,TGI,NCI-H226 lung,6.65 µM
same,GI50,NCI-H23 lung,2.43 µM
same,TGI,NCI-H23 lung,7.59 µM
same,GI50,M14 melanoma,1.87 µM
same,TGI,M14 melanoma,4.68 µM
same,GI50,786-0 renal,2.25 µM
same,TGI,786-0 renal,14.4 µM
same,GI50,COLO 205 colon,0.351 µM
same,TGI,COLO 205 colon,1.31 µM
same,GI50,HCC-2998 colon,1.8 µM
same,TGI,HCC-2998 colon,6.39 µM
same,GI50,RXF 393 renal,2.09 µM
same,TGI,RXF 393 renal,10.1 µM
same,GI50,SF-268 CNS,0.903 µM
same,TGI,SF-268 CNS,6.99 µM
same,GI50,OVCAR-4 ovarian,0.346 µM
same,TGI,OVCAR-4 ovarian,1.4 µM
same,GI50,HS 578T breast,2.83 µM
same,TGI,HS 578T breast,14.4 µM
same,GI50,SF-295 CNS,2.63 µM
same,TGI,SF-295 CNS,11 µM
same,GI50,MCF7 breast,0.498 µM
same,TGI,MCF7 breast,2.24 µM
same,GI50,HOP-62 NSCLC,1.78 µM
same,TGI,HOP-62 NSCLC,7.64 µM
same,GI50,T-47D breast,0.782 µM
same,TGI,T-47D breast,3.14 µM
same,GI50,OVCAR-8 ovarian,0.59 µM
same,TGI,OVCAR-8 ovarian,6.59 µM
same,GI50,OVCAR-3 ovarian,0.475 µM
same,TGI,OVCAR-3 ovarian,5.93 µM
same,GI50,HCT-116 colon,0.407 µM
same,GI50,SNB-75 CNS,1.3 µM
same,TGI,SNB-75 CNS,3.68 µM
same,GI50,HT29 colon,1.35 µM
same,TGI,HT29 colon,> 28.2 µM
same,GI50,SF-539 CNS,2.15 µM
same,TGI,SF-539 CNS,5.5 µM
same,GI50,SNB-19 CNS,2.72 µM
same,TGI,SNB-19 CNS,10.1 µM
same,GI50,NCI-H522 lung,1.62 µM
same,TGI,NCI-H522 lung,6.07 µM
same,GI50,SK-MEL-2 melanoma,1.91 µM
same,TGI,SK-MEL-2 melanoma,4.87 µM
same,GI50,OVCAR-5 ovarian,2.23 µM
same,TGI,OVCAR-5 ovarian,7 µM
same,GI50,K-562 leukemia,1.02 µM
same,TGI,K-562 leukemia,> 36.9 µM
same,GI50,SW-620 colon,0.417 µM
same,TGI,SW-620 colon,10.1 µM
same,GI50,SR leukemia,1.5 µM
same,TGI,SR leukemia,17.7 µM
same,GI50,CCRF-CEM leukemia,0.756 µM
same,TGI,CCRF-CEM leukemia,> 33.4 µM
same,GI50,HCT-15 colon,2.92 µM
same,TGI,HCT-15 colon,22.8 µM
same,GI50,MDA-MB-435,1.62 µM
same,TGI,MDA-MB-435,3.37 µM
same,GI50,BT-549 breast,9.17 µM
same,TGI,BT-549 breast,24.5 µM
COc1ccc(N2C(=O)CSC2c2cc3cc(Br)ccc3nc2Cl)cc1 (stereo not given),TGI,NCI/ADR-RES ovarian,> 50 µM
same,TGI,TK-10 renal,> 50 µM
same,TGI,NCI-H460 lung,> 50 µM
same,TGI,SN12C renal,> 50 µM
same,TGI,SK-OV-3 ovarian,> 50 µM
same,TGI,RPMI-8226 leukemia,> 50 µM
same,TGI,UACC-62 melanoma,> 50 µM
same,TGI,HL-60(TB) leukemia,> 50 µM
same,TGI,ACHN renal,> 50 µM
same,TGI,MALME-3M melanoma,> 50 µM
same,TGI,LOX IMVI melanoma,> 50 µM
same,TGI,IGROV1 ovarian,> 50 µM
same,TGI,PC-3 prostate,> 50 µM
same,TGI,KM12 colon,> 50 µM
same,TGI,UACC-257 melanoma,> 50 µM
same,TGI,A549 NSCLC,> 50 µM
same,TGI,SK-MEL-28 melanoma,> 50 µM
same,TGI,SK-MEL-5 melanoma,> 50 µM
same,TGI,UO-31 renal,> 50 µM
same,TGI,MDA-MB-231 breast,> 50 µM
same,TGI,A498 renal,> 50 µM
same,TGI,CAKI-1 renal,> 50 µM
same,TGI,MOLT-4 leukemia,> 50 µM
same,TGI,DU-145 prostate,> 50 µM
same,TGI,HOP-92 NSCLC,> 50 µM
same,TGI,NCI-H226 lung,> 50 µM
same,TGI,NCI-H23 lung,> 50 µM
same,TGI,M14 melanoma,> 50 µM
same,TGI,786-0 renal,> 50 µM
same,TGI,COLO 205 colon,> 50 µM
same,TGI,HCC-2998 colon,> 50 µM
same,TGI,RXF 393 renal,> 50 µM
same,TGI,SF-268 CNS,> 50 µM
same,TGI,OVCAR-4 ovarian,> 50 µM
same,TGI,HS 578T breast,> 50 µM
same,TGI,SF-295 CNS,> 50 µM
same,TGI,MCF7 breast,> 50 µM
same,TGI,HOP-62 NSCLC,> 50 µM
same,TGI,T-47D breast,> 50 µM
same,TGI,OVCAR-8 ovarian,> 50 µM
same,TGI,OVCAR-3 ovarian,> 50 µM
same,TGI,HCT-116 colon,> 50 µM
same,TGI,SNB-75 CNS,> 50 µM
same,TGI,HT29 colon,> 50 µM
same,TGI,EKVX NSCLC,> 50 µM
same,TGI,SF-539 CNS,> 50 µM
same,TGI,SNB-19 CNS,> 50 µM
same,TGI,NCI-H522 lung,> 50 µM
same,TGI,SK-MEL-2 melanoma,> 50 µM
same,TGI,OVCAR-5 ovarian,> 50 µM
same,TGI,K-562 leukemia,> 50 µM
same,TGI,SW-620 colon,> 50 µM
same,TGI,SR leukemia,> 50 µM
same,TGI,CCRF-CEM leukemia,> 50 µM
same,TGI,HCT-15 colon,> 50 µM
same,TGI,MDA-MB-435,> 50 µM
same,TGI,BT-549 breast,> 50 µM
